Reference: EP4335840A1, “NEW CONTRAST AGENTS FOR USE IN DIAGNOSTIC IMAGING” (priority 2022, dated 2024)
Like-named read-outs stand apart in the source and are kept apart here.

Assays:
[1] = Relaxivity measurements at 1.41 T in water and human plasma; format: physicochemical; details: 37°C, normalized to Gd
Experimental: Relaxivity measurements at 1.41 T were performed using a MiniSpec mq60 spectrometer (Bruker Analytik, Karlsruhe, Germany) operating at a resonance frequency of 60 MHz and a temperature of 37°C. The T1 relaxation times were determined using the standard inversion recovery (IR) method with a fixed relaxation delay of at least 5 × T1. The variable inversion time (TI) was calculated automatically by the standard software of the MiniSpec mq60 (8 steps). The T2 measurements were performed by using a Carr-Purcell-Meiboom-Gill (CPMG) pulse sequence, applying a relaxation delay of at least 5 × T1.
Each relaxivity measurement was performed using three different Gd concentrations (3 concentrations between 0.05 and 2 mM). The T1 and T2 relaxation times of the example compounds 1 to 10 were measured in different media for example in water and human plasma. Human plasma preparation: For each experiment fresh blood was taken from a volunteer using 10 mL citrate-tubes (Sarstedt S-Monovette 02.1067.001, 10 mL, Citrate). The 10 mL citrate-tubes were carefully inverted 10 times to mix blood and anticoagulant and centrifuged for 15min at 1811 g at RT (Eppendorf, Centrifuge 5810R).
The relaxivities ri (where i=1, 2) were calculated based on the measured relaxation rates Ri in water and plasma: ri = (Ri−Ri(0))/CGd [formula] where Ri(0) represent the relaxation rate of the respective solvent and CGd the concentration of the compound normalized to the Gadolinium. The Gadolinium concentrations of the investigated solutions were verified by Inductively Coupled Plasma Mass Spectrometry (ICP-MS Agilent 7500a, Waldbronn, Germany). Table 3: Relaxivities of investigated compounds in water and human plasma at 1.41 T and relaxivities of Reference compounds 1-3 (RC1-RC3) at 1.5 T in water and bovine plasma. All values are measured at 37°C and normalized to Gd and given in L mmol-1 s-1.

OATP1B1 = biological target: T1, OATP1B1 (Homo sapiens, UniProt Q9Y6L6); experiment: Uptake into stable transfected OATP1B1 HEK 293 cells; format: cell-based
T1 sequence (Q9Y6L6 1-691): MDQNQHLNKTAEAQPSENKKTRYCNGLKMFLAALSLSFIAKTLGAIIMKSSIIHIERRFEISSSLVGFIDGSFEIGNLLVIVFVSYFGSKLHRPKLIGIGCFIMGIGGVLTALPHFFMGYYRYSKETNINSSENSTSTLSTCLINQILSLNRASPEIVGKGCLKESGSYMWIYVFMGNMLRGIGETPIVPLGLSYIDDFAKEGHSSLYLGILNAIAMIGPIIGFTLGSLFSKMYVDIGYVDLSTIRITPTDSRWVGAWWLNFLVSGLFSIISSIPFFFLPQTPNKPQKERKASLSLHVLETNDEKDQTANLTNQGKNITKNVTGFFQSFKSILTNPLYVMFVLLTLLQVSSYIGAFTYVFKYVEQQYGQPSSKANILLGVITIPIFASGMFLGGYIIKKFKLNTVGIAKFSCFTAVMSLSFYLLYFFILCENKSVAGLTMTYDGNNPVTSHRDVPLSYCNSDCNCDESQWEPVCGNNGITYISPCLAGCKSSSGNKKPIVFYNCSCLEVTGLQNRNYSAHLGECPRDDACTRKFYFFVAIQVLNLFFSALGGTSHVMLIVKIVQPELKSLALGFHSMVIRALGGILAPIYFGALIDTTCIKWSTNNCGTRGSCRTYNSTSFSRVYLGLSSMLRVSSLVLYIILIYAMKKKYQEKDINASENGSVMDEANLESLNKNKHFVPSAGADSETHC

OATP1B3 = biological target: T2, OATP1B3 (Homo sapiens, UniProt Q9NPD5); experiment: Uptake into stable transfected OATP1B3 HEK 293 cells; format: cell-based
T2 sequence (Q9NPD5 1-702): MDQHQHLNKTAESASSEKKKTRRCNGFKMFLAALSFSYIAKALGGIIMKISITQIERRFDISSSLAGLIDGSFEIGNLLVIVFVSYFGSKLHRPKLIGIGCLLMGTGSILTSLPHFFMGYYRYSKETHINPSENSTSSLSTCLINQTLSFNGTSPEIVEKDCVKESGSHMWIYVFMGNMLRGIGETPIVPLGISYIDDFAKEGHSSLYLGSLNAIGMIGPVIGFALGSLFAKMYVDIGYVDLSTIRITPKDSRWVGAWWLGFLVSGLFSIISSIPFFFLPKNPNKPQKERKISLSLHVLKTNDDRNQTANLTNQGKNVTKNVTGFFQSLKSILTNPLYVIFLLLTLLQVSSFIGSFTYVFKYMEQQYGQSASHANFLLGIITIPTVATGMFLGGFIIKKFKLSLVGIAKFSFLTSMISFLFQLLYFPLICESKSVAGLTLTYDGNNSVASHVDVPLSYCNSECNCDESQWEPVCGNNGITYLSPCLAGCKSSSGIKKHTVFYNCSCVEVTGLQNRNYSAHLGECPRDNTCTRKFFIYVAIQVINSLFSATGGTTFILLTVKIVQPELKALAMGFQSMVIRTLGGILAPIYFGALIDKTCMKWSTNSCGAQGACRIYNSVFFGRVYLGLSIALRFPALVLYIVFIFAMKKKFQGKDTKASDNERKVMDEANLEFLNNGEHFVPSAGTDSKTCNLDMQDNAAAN

[2] = system: freshly isolated rat hepatocytes; experiment: Uptake into freshly isolated rat hepatocytes; details: rat hepatocyte uptake with OATP1B1/1B3 inhibitor Rifampicine, test item and inhibitor each 100 µM
Experimental: The rat hepatocytes were incubated (2.5 ·10^5 cells/well) for 2.5 to 4h in collagen coated 24-well plates (Fa. Beckton Dickinson Biocoat, cell environments, Collagen I Cellware) in Williams E-medium (Fa. Sigma W1878) in an incubator (37°C, 5% CO2 and 95% oxygen). After incubation the adherent hepatocytes were washed once with 37°C Hepes carbonate transport buffer (500 µL/well). The test items and RC1 were prepared from stock solutions (180 to 500 mM concentration) in Hepes carbonate transport buffer at pH 7.4 to reach a final concentration of 100 µmοl Gd/L. The specific uptake of the test item or RC1 into rat hepatocytes via OATP1 B1 and OATP1 B3 was challenged using a known OATP1B1/1B3 inhibitor (Rifampicine, Fa. Sigma R3501, test item and inhibitor 1:1 each 100 µM final concentration). The prepared rat hepatocyte plates were incubated with test solutions (500 µL/well) at 37°C for 10 min using a thermoshaker (Fa. Grant Bio, PHMP). Triplicates were performed for each test item. After incubating the cells were washed once with cold PBS buffer (Fa. Gibco, Dulbeccos PBS (+)). After washing the intact hepatocytes were lysed by addition of 500 µL cold 0.01 % Triton-X 100 in Millipore water for 1h. […] After 1h 500 µL of 10 nM Terbium ICP-MS standard was added in 2% nitric acid and 0.01% Triton 100 before the Gadolinium concentrations in the lysate were measured using ICP-MS (Agilent 8900, singleQuad, integr. Time 0.3 s, no gas, 5 replicates, Gd m/z 157, Tb m/z 159). As a reference standard RC1 is used in the same well plate. The hepatocyte uptake of the test compound is calculated relative to RC1 (resulting in the unit % of RC1).

[3] = Complex stability (transmetallation with Zn2+, proton relaxometry); format: physicochemical; details: 72 hours, 2.5 mM Zn2+, 26 mM phosphate buffer, 37°C, pH 7.4; 1.41 T
Experimental: The used method is described elsewhere (Laurent S et al., Stability of MRI paramagnetic contrast media: a proton relaxometric protocol for transmetallation assessment. Invest Radiol. 2001 Feb;36(2):115-22). In brief: A solution containing 2.5 mmol/L of test compound and 2.5 mmol/L ZnCl2 in 26 mM phosphate buffer (KH2PO4 Merck; 1.09439.1000, #HC748513, pH 7,00), was incubated at 37°C over a period of at least 3 days. If test compounds are instable under these conditions, transmetallation during this test would lead to the formation of the Zn^2+ complex of the test item, while Gd^3+ is released and precipitated as highly insoluble GdPO4.
After 3d of incubation T1 relaxation time was observed. […] Table 2: Transmetallation stability [%] of paramagnetic contrast agents over 72 hours (2.5 mM Zn2+, 26 mM phosphate buffer, 37°C, pH 7.4).

[4] = Water solubility in aqueous buffer; format: physicochemical
Experimental: The exploratory water solubility of the compounds is determined at room temperature (20°C) in 0.5 mL buffer solution (10 mM Tris-HCI, pH 7.4) in the microcentrifuge tubes (Eppendorf, 2.0 mL safe-lock caps). The solid compounds were added stepwise to the buffer solution. More substance is added once all the suspended material is dissolved until an equilibrium between undissolved and dissolved substance is reached. The suspension was mixed using a shaker (Heidolph Reax 2000) and treated 5 min in an ultrasound bath (Bandelin, Sonorex Super RK255H). The Gadolinium concentration of the test substance in the clear solution is measured by ICP-MS. Table 1: Solubilities of compounds in aqueous buffer at 20°C (pH 7.4).

[5] = in vivo; cited from earlier work
[6] = 1.5 T, 37°C, from Rohrer et al., cited from earlier work; for r1 bovine plasma: bovine plasma instead of human plasma
[7] = OATP1B1-HEK 293 cell uptake with Rifampicine
[8] = OATP1B3-HEK 293 cell uptake with Rifampicine
[9] = aqueous buffer 10 mM Tris-HCl, pH 7.4, 20°C, Gd by ICP-MS

SMILES | r1 human plasma [1] [L/mmol/s] | r1 water [1] [L/mmol/s] | Inhibition Rifampicine (OATP1B1; [7]) [% inhibition] | Inhibition Rifampicine (OATP1B3; [8]) [% inhibition] | Inhibition Rifampicine [2] [% inhibition] | Stability (transmetallation stability, T1 relaxation rates R1n/R10) [3] | Solubility [4, 9] [mM] | excreted into the bile [5] | Inhibition Rifampicine (OATP1B1) [% inhibition] | Inhibition Rifampicine (OATP1B3) [% inhibition] | Solubility ([4]; pH 7.4) [mM] | r1 bovine plasma [6] [L/mmol/s] | r1 water [6] [L/mmol/s] | secreted into the bile [5]
CCOCCOCCOc1ccc(C[C@H]2CN(CC(=O)[O-])CCN(CC(=O)[O-])CCN(CC(=O)O)CCN2CC(=O)[O-])nc1.[Gd+3] [Example 6, Gadolinium 2,2',2"-[(2S)-10-(carboxymethyl)-2-({5-[2-(2-ethoxyethoxy)ethoxy]pyridin-2-yl}methyl)-1,4,7,10-tetraazacyclododecane-1,4,7-triyl]triacetate] | 5.9 | 5.3 | 2 | 65 | 91 | – | – | – | – | – | – | – | – | –
CCOCCOCCOc1ccc(C[C@H]2CN(CC(=O)[O-])CCN(CC(=O)[O-])CCN(CC(=O)O)CCN2CC(=O)[O-])cc1.[Gd+3] [Example 2, Gadolinium-2,2',2"-[(2S)-10-(carboxymethyl)-2-{4-[2-(2-ethoxyethoxy)ethoxy]benzyl}-1,4,7,10-tetraazacyclododecane-1,4,7-triyl]triacetate] | 5.9 | 4.9 | 0 | 86 | 93 | 95% | > 55 | – | – | – | – | – | – | –
CCOCCOCCOCCOc1ccc(C[C@H]2CN(CC(=O)[O-])CCN(CC(=O)[O-])CCN(CC(=O)O)CCN2CC(=O)[O-])cc1.[Gd+3] [Example 5, Gadolinium-2,2',2"-[(2S)-10-(carboxymethyl)-2-(4-{2-[2-(2-ethoxyethoxy)ethoxy]ethoxy}benzyl)-1,4,7,10-tetraazacyclododecane-1,4,7-triyl]triacetate] | 5.7 | 5.1 | 41 | 96 | 89 | 96% | > 284 | – | – | – | – | – | – | –
COCCOCCOCCOc1ccc(C[C@H]2CN(CC(=O)[O-])CCN(CC(=O)[O-])CCN(CC(=O)O)CCN2CC(=O)[O-])cc1.[Gd+3] [Example 1, Gadolinium-2,2',2"-[(2S)-10-(carboxymethyl)-2-(4-{2-[2-(2-methoxyethoxy)-ethoxy]ethoxy}benzyl)-1,4,7,10-tetraazacyclododecane-1,4,7-triyl]triacetate] | 6.6 | 5.1 | 21 | 92 | 90 | – | > 201 | – | – | – | – | – | – | –
CCOc1ccc(CC(CN(CCN(CC(=O)[O-])CC(=O)[O-])CC(=O)[O-])N(CC(=O)[O-])CC(=O)[O-])cc1.[Gd+3].[Na+].[Na+] (stereo not drawn) [RC1, gadoxetate disodium, reference compound] | – | – | – | – | 97 | – | – | up to 50 % of the administered dose | 81 | 99 | > 250 | 6.9 | 4.7 | –
O=C([O-])CN1CCN(CC(=O)[O-])CCN([C@H](CO)[C@H](O)CO)CCN(CC(=O)[O-])CC1.[Gd+3] (racemic) [RC3, gadobutrol] | – | – | – | – | – | stable | – | – | – | – | – | 5.2 | 3.3 | –
O=C([O-])CN(CCN(CC(=O)[O-])CC(=O)[O-])CCN(CC(=O)[O-])C(COCc1ccccc1)C(=O)[O-].[Gd+3].[H+].[H+] (stereo not drawn) [RC2, gadobenic acid] | – | – | – | – | 79 | – | – | – | – | – | – | 6.3 | 4.0 | 3-to-5%
COCCOCCOCCOc1ccc(C[C@@H]2CN(CC(=O)[O-])CCN(CC(=O)[O-])CCN(CC(=O)O)CCN2CC(=O)[O-])cc1.[Gd+3] [Example 3, Gadolinium-2,2',2"-[(2R)-10-(carboxymethyl)-2-(4-(2-[2-(2-methoxyethoxy)ethoxy]ethoxy}benzyl)-1,4,7,10-tetraazacyclododecane-1,4,7-triyl]triacetate] | 6.8 | 5.0 | 31 | 84 | 83 | – | > 166 | – | – | – | – | – | – | –
